Starred links: 1 amine or outer side, 2 acyl side, 3 side chain; linkers in the order of their positions; H or OH if unused. Non-standard residues stand in square brackets, D forms with d. Residues, ends and D or L forms follow the SMILES beside them. Groups on a side chain read outwards from the residue. No end group written: not given here. *: point of attachment. X2 = CCc1cc(OCCCCn2cc(COCCOCCOCCOCCOCCOCCOCCOCCN[*:3])nn2)ccc1-c1ccc(C[C@H](N[*:1])C(=O)[*:2])cc1; Malonyl(2,2-Me2,histaminyl) = CC(C)(C(=O)NCCc1cnc[nH]1)C(=O)*; Nva(5-(3,5-Me2Ph)) = Cc1cc(C)cc(CCC[C@H](N)C(=O)O)c1; Ala(1H-tetrazol-5-yl) = N[C@@H](Cc1nnn[nH]1)C(=O)O; αMePhe(2-F) = C[C@](N)(Cc1ccccc1F)C(=O)O; γGlu = O=C(O)[C@H](CCC(=O)[*:2])N[*:1]; AA10 = not defined here; AA1 = not defined here; AA2 = not defined here; AA6 = not defined here; AA9 = not defined here
Assays:
[1] = biological target: T1, GLP-1R (Homo sapiens, UniProt P43220); experiment: GLP-1R cAMP assay of peptides (Tables 10, 14, 15); format: cell-based
[2] = biological target: T1, GLP-1R; experiment: b-arrestin 2 recruitment enzyme fragment complementation assay in HEK293/b-arrestin2/hGLP1R cells; format: cell-based; parameters: The full-length human GLP1R (NP_002053.3) with a C-terminus fusion to a small b-gal fragment called enzyme donor or ProLink (PK); host or cells: HEK293/b-arrestin2-EA (HEK293/Barrestin clone 2C6/hGLP1R-Prolink1 high sorted, ACL21687)
Excerpt: To test the recruitment of b-arrestin 1 and b-arrestin 2 to GLP1R upon receptor activation, two enzyme fragment complementation assays were developed. To generate the assay cell lines, b-arrestin 1 fused to the b-galactosidase (b-gal) reporter fragment called enzyme acceptor (EA) (i.e., b-arrestin1-EA) or b-arrestin 2 fused to the b-gal reporter fragment EA (i.e., b-arrestin2-EA) were transduced into HEK293 cells using PathHunter b-Arrestinl Retroparticles (DiscoverX, #83-OT-TB-N-01) or PathHunter b-Arrestin2 Retroparticles (DiscoverX, #93-1087), respectively. The full-length human GLP1R (NP_002053.3) with a C-terminus fusion to a small b-gal fragment called enzyme donor or ProLink (PK) (i.e., hGLP1R-PK) was then engineered into HEK293/b-arrestinl-EA cells and HEK293/b-arrestin2-EA cells to generate the cell lines referred herein as HEK293/b-arrestin1/hGLP1R and HEK293/b-arrestin2/hGLP1R. Recruitment of b-arrestin 1 or b-arrestin 2 to GLP1R in these reporter cell lines brings both b-gal fragments (EA and PK) into close proximity, leading to reconstitution of a fully functional enzyme capable of hydrolyzing a substrate and generating a chemiluminescent signal.
(§1) For all assays, cells were seeded into 384-well plates (Falcon #353988) at 6,000 cells/well in assay media (Opti-MEM, 1% FBS, 1×Penicillin-Streptomycin) and incubated overnight at 37° C. Serial dilutions of the anti-GLP1R ATLs and non-binding control ATLs were performed in assay media. Serial dilutions of linker-payloads (LPs) were performed in 100% DMSO (ATCC, #4-X-5), followed by 1:100 dilution in assay media. Test articles were added to cells (1:5 dilution) using VIAFLO 384 (Integra) with the last well in each serial dilution series serving as a blank control containing only assay media for ATLs or assay media with 0.2% DMSO for LPs. The blank was plotted as a continuation of the serial dilution.
For b-arrestin 1 and b-arrestin 2 recruitment assays, after a 1-hour incubation at 37° C., PathHunter Detection Reagent (Eurofins DiscoverX, #93-0001) was added to the wells followed by a 1-hour incubation at room temperature. RLUs were measured on EnVision Plate Reader (Perkin Elmer).
(§2) EC50 values for luminescence assays were determined using a four-parameter logistic equation over a 12-point dose response curve (GraphPad Prism).

[3] = biological target: T1, GLP-1R; experiment: CRE-Luc cAMP responsive luciferase reporter assay in HEK293/CRE-Luc/hGLP1R cells; format: cell-based; parameters: engineered to express full-length human GLP1R (GenBank: AAI12127.1) (HEK293/CRE-Luc/hGLP1R); expressed in transfected cells; host or cells: HEK293/CRE-Luc (HEK293/FSC11/pCDNA3.1 + GLP1R, ACL6822)
Excerpt: To test the activity of GLP1R agonist linker-payloads (LPs) and anti-GLP1R antibody-tethered ligands (ATLs) of the invention, a cell-based cAMP responsive luciferase reporter assay was developed. To generate the assay cell line, the firefly luciferase gene was placed under the control of four copies of a cAMP response element (4×CRE) located upstream of a minimal promoter and transfected into HEK293 cells and referred to herein as HEK293/CRE-Luc cells. HEK293/CRE-Luc cells were then engineered to express full-length human GLP1R (GenBank: AAI12127.1) (HEK293/CRE-Luc/hGLP1R).
as §1
For the CRE-Luc assay, after a 5-hours incubation at 37° C., luciferase activity was determined by addition of ONE-Glo reagent (Promega, #E6130) followed by measurement of relative light units (RLUs) on EnVision Plate Reader (Perkin Elmer).
as §2

[4] = biological target: GLP-1R of the cAMP assay of Tables 10, 14 and 15 (human, UniProt P43220 24-463, limits assumed); experiment: cell-based or functional assay
[5] = Table 15, peptide acids, read-out: cAMP EC50
[6] = Table 10, read-out: GLP-1R CAMP EC50

T1 sequence (P43220 24-463): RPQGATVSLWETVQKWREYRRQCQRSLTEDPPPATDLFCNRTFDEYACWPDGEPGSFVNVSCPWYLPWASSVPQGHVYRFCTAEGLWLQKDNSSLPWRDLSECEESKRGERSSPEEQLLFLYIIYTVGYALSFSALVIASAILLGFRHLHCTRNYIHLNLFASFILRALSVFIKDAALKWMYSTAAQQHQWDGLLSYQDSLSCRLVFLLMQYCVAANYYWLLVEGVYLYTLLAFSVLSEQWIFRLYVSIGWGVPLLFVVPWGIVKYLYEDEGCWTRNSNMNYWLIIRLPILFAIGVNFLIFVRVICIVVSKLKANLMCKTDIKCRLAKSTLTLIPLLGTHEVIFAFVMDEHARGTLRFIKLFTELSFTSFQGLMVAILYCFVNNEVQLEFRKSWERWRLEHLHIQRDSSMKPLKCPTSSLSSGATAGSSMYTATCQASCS

## CCc1cc(OCCCCn2cc(COCCOCCOCCOCCOCCOCCOCCOCCNC(=O)CC[C@H](NC(=O)[C@H](CC(C)C)NC(=O)[C@@H](N)CC(C)C)C(=O)O)nn2)ccc1-c1ccc(C[C@H](NC(=O)[C@H](CC(=O)O)NC(=O)[C@H](CO)NC(=O)[C@@H](NC(=O)[C@](C)(Cc2ccccc2F)NC(=O)[C@@H](NC(=O)CNC(=O)[C@H](Cc2nnn[nH]2)NC(=O)C(C)(C)C(=O)NCCc2cnc[nH]2)[C@@H](C)O)[C@@H](C)O)C(=O)N[C@@H](CCCc2cc(C)cc(C)c2)C(N)=O)cc1 [M6296] ({Malonyl(2,2-Me2,histaminyl)}-[Ala(1H-tetrazol-5-yl)]GT[αMePhe(2-F)]TSD[X2]([γGlu-Leu-Leu])[Nva(5-(3,5-Me2Ph))]-NH2)
[1]; Table 14, peptide amides, read-out: cAMP EC50
  EC50: 1.19 nM

## CCc1cc(OCCCCn2cc(COCCOCCOCCOCCOCCOCCOCCOCCNC(=O)CC[C@H](NC(=O)[C@H](CC(C)C)NC(=O)[C@@H](N)CC(C)C)C(=O)O)nn2)ccc1-c1ccc(C[C@H](NC(=O)[C@H](CC(=O)O)NC(=O)[C@H](CO)NC(=O)[C@@H](NC(=O)[C@](C)(Cc2ccccc2F)NC(=O)[C@@H](NC(=O)CNC(=O)[C@H](Cc2nnn[nH]2)NC(=O)C(C)(C)C(=O)NCCc2cnc[nH]2)[C@@H](C)O)[C@@H](C)O)C(=O)N[C@@H](CCCc2cc(C)cc(C)c2)C(=O)O)cc1 [M6297] ({Malonyl(2,2-Me2,histaminyl)}-[Ala(1H-tetrazol-5-yl)]GT[αMePhe(2-F)]TSD[X2]([γGlu-Leu-Leu])[Nva(5-(3,5-Me2Ph))]-OH)
[1]
  EC50: 13.4 nM
[1]; Table 10
  GLP-1R CAMP Max: 103.80%

## CCc1cc(OCCCCN=[N+]=[N-])ccc1-c1ccc(C[C@H](NC(=O)[C@H](CC(=O)O)NC(=O)[C@H](CO)NC(=O)[C@@H](NC(=O)[C@](C)(Cc2ccccc2F)NC(=O)[C@@H](NC(=O)CNC(=O)[C@H](Cc2nn[nH]n2)NC(=O)C(C)(C)C(=O)NCCc2cnc[nH]2)[C@@H](C)O)[C@@H](C)O)C(=O)O)cc1 [M6320]
[1]; [5]
  EC50: 51.2 nM

## CCc1cc(OCCCCn2cc(COCCOCCOCCOCCOCCOCCOCCOCCNC(=O)CC[C@H](NC(=O)[C@H](CC(C)C)NC(=O)[C@@H](N)CC(C)C)C(=O)O)nn2)ccc1-c1ccc(C[C@H](NC(=O)[C@H](CC(=O)O)NC(=O)[C@H](CO)NC(=O)[C@@H](NC(=O)C(C)(Cc2ccccc2F)NC(=O)[C@@H](NC(=O)CNC(=O)[C@H](Cc2nn[nH]n2)NC(=O)C(C)(C)C(=O)NCCc2cnc[nH]2)[C@@H](C)O)[C@@H](C)O)C(=O)O)cc1 (stereo partly shown) [M6321]
[1]; Table 10
  GLP-1R CAMP Max: 33.86%
[1]; [6]
  EC50: > 1000 nM
[1]; [5]
  EC50: > 1000 nM

## CCc1cc(OCCCCn2cc(COCCOCCOCCOCCOCCOCCOCCOCCNC(=O)CC[C@H](N)C(=O)O)nn2)ccc1-c1ccc(C[C@H](NC(=O)[C@H](CC(=O)O)NC(=O)[C@H](CO)NC(=O)[C@@H](NC(=O)C(C)(Cc2ccccc2F)NC(=O)[C@@H](NC(=O)CNC(=O)[C@H](Cc2nn[nH]n2)NC(=O)C(C)(C)C(=O)NCCc2cnc[nH]2)[C@@H](C)O)[C@@H](C)O)C(=O)O)cc1 (stereo partly shown) [M6322]
[1]; Table 10
  GLP-1R CAMP Max: 29.24%
[1]; [6]
  EC50: > 1000 nM
[1]; [5]
  EC50: > 1000 nM

## Cc1cc(OCCOCCOCCOCCOCCOCCOCCOCCN)ccc1-c1ccc(C[C@H](NC(=O)[C@H](CC(=O)O)NC(=O)[C@H](CO)NC(=O)[C@@H](NC(=O)C(C)(Cc2ccccc2F)NC(=O)[C@@H](NC(=O)CNC(=O)[C@H](Cc2nnn[nH]2)NC(=O)C(C)(C)C(=O)NCCc2cnc[nH]2)[C@@H](C)O)[C@@H](C)O)C(=O)O)cc1 (stereo partly shown) [M6447]
[2]; HEK293, read-out: Emax (% GLP-1), b-Arrestin2 recruitment, HEK293/b-arrestin2/hGLP1R
  Emax: 0.3%
[2]; HEK293/b-arrestin2/hGLP1R cells
  b-arrestin 2 recruitment (in words): recruited very low levels of b-arrestin 2
[2]; HEK293/b-arrestin2/hGLP1R cells, independent experiments A, B, read-out: EC50 (M), b-Arrestin2 recruitment, HEK293/b-arrestin2/hGLP1R
  EC50: > 1e-06 M
[3]
  EC50: > 1000 nM
[3]; HEK293, read-out: Emax (% GLP-1), CRE-dependent reporter activity, HEK293/CRE-Luc/hGLP1R
  Emax: 9.8%
[3]; HEK293/CRE-Luc/hGLP1R cells
  CRE-dependent luciferase reporter activity (in words): very weak activator of CRE-dependent luciferase reporter activity

B1: Q-M6009 (AA10-AA9-AA8-AA7-AA6-AA5-AA4-AA3-(Q-L)AA2-AA1-OH) (peptide)
peptide: XXGTXTSDXX-OH
modifications: not fully specified (residues 1, 2, 5, 9, 10); printed as Q-M6009 (AA10-AA9-AA8-AA7-AA6-AA5-AA4-AA3-(Q-L)AA2-AA1-OH)
[4]
  GLP-1R CAMP EC50: 3.21 nM
  GLP-1R CAMP Max (%): 106%

B2: LLQ-M6009 (AA10-AA9-AA8-AA7-AA6-AA5-AA4-AA3-(LLQ-L)AA2-AA1-OH) (peptide)
peptide: [AA10][AA9]GT[AA6]TSD[AA2]([Leu-Gln-Leu-Leu])[AA1]-OH
modifications: reading uncertain; also: printed as LLQ-M6009 (AA10-AA9-AA8-AA7-AA6-AA5-AA4-AA3-(LLQ-L)AA2-AA1-OH)
[4]
  GLP-1R CAMP EC50: 13.4 nM
  GLP-1R CAMP Max (%): 104%

B3: AA10-AA9-AA8-AA7-AA6-AA5-AA4-AA3-AA2-AA1-OH (peptide)
peptide: [AA10][AA9]GT[AA6]TXD[AA2][AA1]-OH
modifications: not fully specified (residue 7); printed as AA10-AA9-AA8-AA7-AA6-AA5-AA4-AA3-AA2-AA1-OH; also: AA2 azidobutoxy
[4]
  GLP-1R CAMP EC50: 2.94 nM
  GLP-1R CAMP Max (%): 122%

B4: AA10-AA9-AA8-AA7-AA6-AA5-AA4-AA3-AA2-OH (peptide)
peptide: [AA10][AA9]GT[AA6]TSDX-OH
modifications: not fully specified (residue 9); printed as AA10-AA9-AA8-AA7-AA6-AA5-AA4-AA3-AA2-OH
[4]
  GLP-1R CAMP EC50: 51.2 nM
  GLP-1R CAMP Max (%): 97.9%

B5: AA10-AA9-AA8-AA7-AA6-AA5-AA4-AA3-(Q-L)AA2-OH (peptide)
peptide: [AA10][AA9]GT[AA6]TSD[AA2]([Leu-Gln])-OH
modifications: reading uncertain; also: printed as AA10-AA9-AA8-AA7-AA6-AA5-AA4-AA3-(Q-L)AA2-OH
[4]
  GLP-1R CAMP EC50: > 1000 nM
  GLP-1R CAMP Max (%): 29.2%

B6: AA10-AA9-AA8-AA7-AA6-AA5-AA4-AA3-(LLQ-L)AA2-OH (peptide)
peptide: [AA10][AA9]GT[AA6]TSD[AA2]([Leu-Gln-Leu-Leu])-OH
modifications: reading uncertain; also: printed as AA10-AA9-AA8-AA7-AA6-AA5-AA4-AA3-(LLQ-L)AA2-OH
[4]
  GLP-1R CAMP EC50: > 1000 nM
  GLP-1R CAMP Max (%): 33.9%

From patent US20250171516A1, “PEPTIDE ACIDS AS A GLP1R AGONIST AND ANTIBODY-DRUG CONJUGATES THEREOF” (Regeneron Pharmaceuticals, Inc., priority 2023, published 2025)
